ChEMBL document CHEMBL3507680, “University of Dundee, Gates Library screen for HepG2 cell viability”

Assay: Human HepG2 cell viability assay in 384 well format
Assay type: toxicity, cell-based
Design: dose 125 nL, time 70.5 hour; concentration not given beside the values
Settings: HepG2 cells, read-out: Inhibition

Row | SMILES | cytotoxicity at 70.5 h [%]
1 | COC1(CNC(=O)NCc2ccccc2)CCSC1 (centres undefined) | -9.9
2 | COC1(CNC(=O)NCCOc2ccccc2)CCSC1 (centres undefined) | 1.02
3 | Cc1cccnc1NC(=O)c1ccc(-n2cncn2)nn1 | 1.65
4 | O=C(NCCn1nc(-n2cncn2)ccc1=O)c1ccccc1Br | -5.84
5 | Cc1nn(C)c(C)c1S(=O)(=O)NCC1CCN(c2ccccn2)CC1 | 0.358
6 | Cn1cnc(S(=O)(=O)NCC2(O)CCc3ccccc3C2)c1 (centres undefined) | -7.71
7 | Cn1cc(C(=O)Nc2ccc3c(c2)N(C(=O)c2ccco2)CC3)nn1 | 0.738
8 | CC(=O)N1CCc2ccc(NC(=O)c3cn(C)nn3)cc2C1 | -5.41
9 | Cn1cc(C(=O)Nc2ccc3c(c2)CN(C(=O)C2CC2)CC3)nn1 | -8.54
10 | Cn1cc(S(=O)(=O)NCCc2ccsc2)cn1 | -6.26
11 | COC(=O)N1CCC(CNS(=O)(=O)c2cnn(C)c2)CC1 | -0.269
12 | Cn1cc(C(=O)Nc2ccc(CC(=O)NCC(F)(F)F)cc2)nn1 | -6.55
13 | Cc1nc(N(C)C)nc(C)c1NC(=O)c1ccco1 | -3.93
14 | Cc1nc(N2CCOCC2)nc(C)c1NC(=O)COc1ccccc1 | -1.69
15 | COc1ccc(CC(=O)Nc2c(C)nc(N3CCOCC3)nc2C)cc1 | 1.49
16 | CCS(=O)(=O)NCc1nc(C)cc(N2CCCCC2)n1 | -7.45
17 | O=C(NCCNc1cc(N2CCCC2)cnn1)Nc1ccccc1F | -2.71
18 | COc1ncc(NC(=O)c2ccco2)c(OC)n1 | 7.73
19 | CCOc1ncc(NC(=O)c2ccco2)c(OCC)n1 | -0.599
20 | O=C(NCCn1ccc(-c2ccncc2)n1)C1CC1 | -12
21 | CCOCC(=O)NCCn1ccc(-c2ccccn2)n1 | -4.11
22 | O=S(=O)(NCCn1ccc(-c2ccccn2)n1)C1CC1 | -0.0974

Row | SMILES | cytotoxicity at 70.5 h [%]
23 | O=S(=O)(NCCn1ccc(-c2cccs2)n1)C1CC1 | -0.924
24 | Cc1nn(C)c(C)c1S(=O)(=O)NCCn1ccc(-c2cccs2)n1 | -0.512
25 | Cc1cccc(CS(=O)(=O)NCc2nn(C)c3c2CCCC3)c1 | -2.52
26 | O=C(CN1C(=O)CCC1=O)NCc1nn(C2CCCC2)c2c1CCCC2 | -2.19
27 | Cn1nc(CNC(=O)c2cccc(C(F)(F)F)c2)c2c1CCOC2 | -3.96
28 | Cc1ccnc(OC[C@]23COC[C@H]2CN(C(=O)Cc2ccsc2)C3)n1 | -7.56
29 | O=C(NCCc1ccncc1)[C@H]1C[C@@H]2CCN(c3nncs3)C[C@H]2O1 | -11.9
30 | Cc1cccc(CN2CC3(CCN(C(N)=O)CC3)OCC2=O)n1 | -10.4
31 | COCC(=O)N1CCC2(COCc3c(C)nc(N(C)C)nc32)C1 (centres undefined) | 15.4
32 | CC(C)COCC1CN(Cc2ccco2)Cc2ncn(C)c21 (centres undefined) | -6.93
33 | CC(C)COCC1CN(Cc2ccsc2)Cc2ncn(C)c21 (centres undefined) | -9.98
34 | CCc1cccc(NC(=O)N2CCn3cnc(COC)c3C2)c1 | -14.2
35 | Cc1cccc(NC(=O)N2CCCn3cnc(CN(C)C(C)C)c3C2)c1 | 17.2
36 | Cn1ccnc1CN1CCC(F)(F)C2(CCN(c3cnccn3)C2)C1 (centres undefined) | 19.3
37 | O=S(=O)(C1CC1)N1CCO[C@H]2[C@@H](Oc3ncccc3F)CC[C@@H]21 | -8.02
38 | CC(C)CN1C(=O)C2(CCN(Cc3ccsc3)C2)c2ccccc21 (centres undefined) | -13
39 | CNC(=O)[C@@H]1CCO[C@@H]2CCN(CCc3ccccc3)C[C@H]21 | -3.11
40 | CCCS(=O)(=O)N1CCO[C@H]2[C@@H](Oc3cccnc3)CC[C@@H]21 | -1.96
41 | Fc1ccc(CN2CCC3(CC2)CC(c2cccnc2)CO3)cc1 (centres undefined) | -0.689
42 | CN1C(Cn2cccn2)C[C@@H]2CN(C(=O)c3cccc(C#N)c3)CC[C@@H]21 (some centres undefined) | -7.79
43 | FC1(F)CCN(Cc2cccnc2)CC12CCN(c1cnccn1)C2 (centres undefined) | -12.8
44 | FC1(F)CCN(Cc2ccncc2)CC12CCN(c1cnccn1)C2 (centres undefined) | -8.66
